Experiment: logP determination by HPLC on a reversed-phase column (C 18), EEC Directive 79/831 Annex V.A8
Format: physicochemical
Settings: method marked [a] in Table 1
Procedure: The stated logP values were determined in accordance with EEC Directive 79/831 Annex V.A8 by HPLC (high performance liquid chromatography) on a reversed-phase column (C 18). Temperature: 43° C.

Row | logP | Compound
1 | 7.36^[a] | COc1ccc(-c2cccc(C(C)=NOCC(C)(C)CON=C(C)c3cccc(-c4ccc(OC)cc4)n3)n2)cc1 [compound 579]
2 | 4.17^[a] | Cc1cccnc1C(=NOCCCON=C(c1ccccc1)c1ncccc1C)c1ccccc1 [compound 657]
3 | 2.68^[a] | CCC1=NOC(CON=C(C)c2cccc(C)n2)(CON=C(C)c2cccc(C)n2)C1 (stereo not drawn) [compound 594]

Same assay, conditions: method marked [b] in Table 1

Row | logP | Compound
4 | 3.41^[b] | Cc1nc(/C(N)=N/OCc2ccccc2CO/N=C(\N)c2nc(C)c(Cl)c(C)n2)nc(C)c1Cl [compound 709]
5 | 3.19^[b] (isomer A) | C=C(CON=C(C)c1cccc(C)n1)CON=C(c1cccc(C)n1)C1CC1 (single isomer, unassigned) [compound 536]
6 | 5.71^[b] | CCCC(=NOCC1(CON=C(CCC)c2cccc(C)n2)CC(C(C)C)=NO1)c1cccc(C)n1 (stereo not drawn) [compound 616]

The next lines start with the compound.

Row | Compound | logP
7 | CC(=NOCC1(CON=C(C)c2ccc(C)c(C)n2)CC1)c1cc(C)cc(C)n1 [Compound 695] | 2.61^[b]
8 | CC(=NOCC(C)(C)CON=C(C)c1ccc(C)o1)c1ccc(C)o1 [Compound 698] | 5.00^[b]

Same assay, conditions: method marked [c] in Table 1

Row | logP | Compound
9 | 6.02^[c] | CC(=NOCC1(CON=C(C)c2ccc(C)c(C)n2)CC1)c1cc(C)cc(C)n1 [Compound 695]

Same assay, conditions: method marker [a] (footnote not shown); isomer A / isomer B / isomer mixture as noted in the cell

Row | logP | Compound
10 | 2.15^[a] (isomer A) | CC(=NOCCCON=C(C)c1ncccc1C)c1ncccc1C (single isomer, unassigned) [compound 85]
11 | 4.22^[a] (isomer A) | CCCC(=NOCCCON=C(CCC)c1ncccc1C)c1ncccc1C (single isomer, unassigned) [compound 99]

Same assay, conditions: method marker [b]; isomer A / isomer B / isomer mixture as noted in the cell

Row | logP | Compound
12 | 2.94^[b] | CC(=NOCC(F)CON=C(C)c1cccc(C)n1)c1cccc(C)n1 (stereo not drawn) [Compound 212]
13 | 2.36^[b] | Cc1nc(/C(N)=N/OCO/N=C(\N)c2nc(C)c(Cl)c(C)n2)nc(C)c1Cl [compound 41]
14 | 3,16^[b] | CC(=NOCCCCON=C(C)c1cccc(C)n1)c1cccc(C)n1 [compound 6]

Same assay, conditions: value marked [a]

Row | logP | Compound
15 | 2.19^[a] | CC(=NOCC(C)CON=C(C)c1nc(C)c(C)cc1C)c1nc(C)c(C)cc1C (stereo not drawn) [Compound 255]
16 | 4.96^[a] | CC(=NOCC(C)(C)CON=C(C)c1ccc(C)c(C)n1)c1cccc(C)n1 [Compound 799]
17 | 6.11^[a] | CCC(=NOCC(C)(C)CON=C(CC)c1cccc(C)n1)c1cccc(C)n1 [Compound 277]

Same assay, conditions: value marked [b]

Row | logP | Compound
18 | 1.90^[b] | CC(=NOCCCCON=C(C)c1cccc(C)n1)c1ccc(C)nc1 [compound 382]
19 | 3.75^[b] | C=C(CON=C(C)c1ccc(OC)c(OC)c1)CON=C(C)c1cccc(C)n1 [compound 403]
20 | 2.33^[b] | C=C(CON=C(C)c1cc(C)c(C)nn1)CON=C(C)c1cc(C)c(C)nn1 [compound 284]
21 | 4.67^[b] | C=C(CON=C(C)c1cccc(C)n1)CON=C(C)c1cccc(CC)n1 [compound 354]
22 | 5.48^[b] (isomer B) | CC(=NOCCCCON=C(CC(C)C)c1cccc(C)n1)c1cccc(C)n1 (single isomer, unassigned) [compound 530]
23 | 2.08^[b] (isomer A) | CC(=NOCC(C)CON=C(C)c1nc(C)ccc1C)c1nc(C)ccc1C (single isomer, unassigned) [compound 268]
24 | 4.56^[b] | CC(=NOCC(C)(C)CON=C(c1ncccc1C)C(C)C)c1cccc(C)n1 [compound 368]
25 | 4.98^b] | CC(=NOCCCCCCON=C(c1ccccc1)c1ncccc1C)c1cccc(C)n1 [compound 341]
26 | 1.84^[b] | C=C(CON=C(C)c1nc(C)ccc1C)CON=C(C)c1nc(C)ccc1C (single isomer, unassigned) [compound 308]

The remaining lines, values behind:

Row | Compound | logP
27 | CC(=NOCC(C)(C)CON=C(C)c1ccc(C)c(C)n1)c1cccc(C)n1 [Compound 799] | 4.96^[b]
28 | CCCC(=NOCCCCON=C(C)c1cccc(C)n1)c1ncccc1C (single isomer, unassigned) [Compound 327] | 3.61^[b] (isomer A)
29 | C=C(CON=C(C)c1cccc(C)n1)CON=C(C)c1cccc(CCC)n1 [Compound 477] | 5.42^[b]
30 | C=C(CON=C(C)c1cccc(C)n1)CON=C(C)c1cccc(Cc2ccccc2)n1 [Compound 350] | 5.71^[b]
31 | CC(=NOCCC(C)ON=C(C)c1cccc(C)n1)c1cccc(C)n1 (stereo not drawn) [Compound 295] | 3.34^[b]

Same assay, conditions: value marked [c]

Row | logP | Compound
32 | 6.34^[c] | CC(=NOCC(C)(C)CON=C(C)c1ccc(C)c(C)n1)c1cccc(C)n1 [Compound 799]
33 | 2.94^[c] | C=C(CON=C(C)c1nc(C)ccc1C)CON=C(C)c1nc(C)ccc1C (single isomer, unassigned) [compound 308]

Reference: patent publication US20100022559A1, “BISOXIMES AS FUNGICIDES” (BAYER CROPSCIENCE AG, priority 2006, published 2010)
